# Test results reported in patent US12122816B2, “Long acting peptide tyrosine tyrosine (PYY) analogs and methods of use” (Intarcia Therapeutics, Inc., priority 2020, dated 2024).
# What was measured:
# Experiment in all cases: NPY receptor functional assay (cAMP, HEK-CNG cells, ACTOne membrane potential dye)
# Type in all cases: cell-based
# [1] = target: T1, human Y1 receptor (Homo sapiens, UniProt P25929)
# T1 sequence (P25929 1-384): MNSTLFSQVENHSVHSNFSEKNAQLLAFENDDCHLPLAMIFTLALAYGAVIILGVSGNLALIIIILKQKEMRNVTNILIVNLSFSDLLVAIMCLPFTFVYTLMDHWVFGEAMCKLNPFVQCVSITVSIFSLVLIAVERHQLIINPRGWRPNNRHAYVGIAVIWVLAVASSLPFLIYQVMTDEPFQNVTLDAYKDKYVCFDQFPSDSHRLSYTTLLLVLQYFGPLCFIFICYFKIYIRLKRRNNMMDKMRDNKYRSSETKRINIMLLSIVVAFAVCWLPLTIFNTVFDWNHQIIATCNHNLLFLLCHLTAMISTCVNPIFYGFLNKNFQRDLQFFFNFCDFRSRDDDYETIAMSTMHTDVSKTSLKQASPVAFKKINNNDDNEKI
# From the text: The NPY family of G-protein coupled receptors include Y1, Y2, Y4, and Y5 in humans and rats. […] Following agonist binding, the receptor-G protein complex activates a downstream intracellular signaling cascade which leads to inhibition of adenylate cyclase and a reduction in intracellular cAMP levels.
# HEK-CNG cells stably expressing the human or rat Y1, Y2, Y4 or Y5 receptors (Codex Biosolutions) were used to characterize the functional potency of peptide agonists using the ActOne™ membrane potential dye kit (Codex Biosolutions). In addition to each NPY receptor, each cell line encodes a proprietary exogenous Cyclic Nucleotide-Gated (CNG) channel (Codex Biosolutions). The channel is activated by elevated intracellular levels of cAMP, resulting in ion flux and cell membrane depolarization which can be detected with a calcium sensitive dye or fluorescent membrane potential (MP) dye. Cells were carried in growth media containing 90% DMEM, 10% FBS, 250 mcg/mL G418 and 1 mcg/mL puromycin for no more than 15 passages.
# Prior to testing, cells were counted and dispensed at 14,000 cells per well (Y1, Y4 and Y5) or 28,000 cells per well (Y2) into black 384 well Poly-D-Lysine plates at 20 mcL per well. Covered plates were then incubated at room temperature for 30 minutes followed by an overnight incubation at 37° C. in 5% C02. The following day, media was removed and wells were washed once with 40 mcL Dulbecco's phosphate buffered saline. […] Ten microliters of experimental peptide or peptide standard was added in triplicate to wells and incubated for 50 minutes at room temperature in the dark. Following this incubation step, plates were read again as before (final read).
# NPY receptor activation, leading to a reduction in intracellular cAMP levels, is detected as a decrease in isoproteranol induced fluorescent signal. Peptide standard and experimental values were initially transformed in excel using the formula: final read/initial read. […] Normalized data was analyzed from triplicate tests and used to estimate the EC50 for each test peptide on each receptor. Data was fit in GraphPad Prism software (v8.2.1) using a 3-parameter logistic curve model: Y=Bottom+(Top−Bottom)/(1+10^((LogEC50−X))). EC50 values were converted to pEC50 values using the formula: pEC50=−Log(EC50).
# [2] = target: T2, human Y2 receptor (Homo sapiens, UniProt P49146); conditions: NPY2R pEC50, HEK-CNG cells; standard PYY(3-36); species (human or rat) not given
# T2 sequence (P49146 1-381): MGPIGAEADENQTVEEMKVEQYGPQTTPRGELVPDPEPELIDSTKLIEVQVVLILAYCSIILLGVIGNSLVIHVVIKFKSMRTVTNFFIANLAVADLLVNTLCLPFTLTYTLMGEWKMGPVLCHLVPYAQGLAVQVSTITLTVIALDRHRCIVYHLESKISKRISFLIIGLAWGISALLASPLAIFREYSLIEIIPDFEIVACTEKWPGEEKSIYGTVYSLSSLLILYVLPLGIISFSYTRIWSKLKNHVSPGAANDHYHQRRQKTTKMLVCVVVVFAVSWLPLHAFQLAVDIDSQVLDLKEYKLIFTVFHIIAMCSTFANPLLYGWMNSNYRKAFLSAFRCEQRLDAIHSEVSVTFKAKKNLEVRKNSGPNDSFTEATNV
# Summary of the method: (§1)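 HEK-CNG cells stably expressing each human receptor; peptides added in triplicate for 50 minutes at room temperature, with agonism read as decreased isoproterenol-induced membrane potential dye signal (final/initial read).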
# [3] = target: T3, human Y5 receptor (Homo sapiens, UniProt Q15761); conditions: NPY5R pEC50, HEK-CNG cells; standard NPY; species (human or rat) not given
# T3 sequence (Q15761 1-445): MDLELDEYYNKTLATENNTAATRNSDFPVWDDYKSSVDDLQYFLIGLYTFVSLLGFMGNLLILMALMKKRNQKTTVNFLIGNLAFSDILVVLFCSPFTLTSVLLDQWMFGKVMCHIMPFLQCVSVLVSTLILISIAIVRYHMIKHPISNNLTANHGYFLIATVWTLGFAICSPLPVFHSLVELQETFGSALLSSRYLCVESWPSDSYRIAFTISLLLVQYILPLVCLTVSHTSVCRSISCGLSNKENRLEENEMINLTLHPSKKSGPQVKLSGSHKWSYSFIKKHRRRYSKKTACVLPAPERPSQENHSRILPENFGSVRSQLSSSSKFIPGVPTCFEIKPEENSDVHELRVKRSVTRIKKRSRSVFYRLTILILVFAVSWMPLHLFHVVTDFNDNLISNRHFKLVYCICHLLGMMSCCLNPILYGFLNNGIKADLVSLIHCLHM
# Summary of the method: as §1
SMILES,EC50 [1] [nM],EC50 [2] [nM],EC50 [3] [nM]
CC(C)C[C@H](NC(=O)[C@H](CC(=O)O)NC(=O)[C@H](CCCCN)NC(=O)[C@H](Cc1ccc(O)cc1)NC(=O)[C@H](Cc1ccc(O)cc1)NC(=O)[C@H](CCCNC(=N)N)NC(=O)[C@H](CC(N)=O)NC(=O)[C@H](Cc1c[nH]c2ccccc12)NC(=O)[C@H](CCC(=O)O)NC(=O)[C@H](CCCCN)NC(=O)[C@@H]1CCCN1C(=O)[C@H](CO)NC(=O)[C@H](C)NC(=O)[C@H](CC(=O)O)NC(=O)[C@H](CCC(=O)O)NC(=O)CNC(=O)[C@@H]1CCCN1C(=O)[C@H](CCCCNC(=O)CC[C@H](NC(=O)CC[C@H](NC(=O)CCCCCCCCCCCCCCCCCCC(=O)O)C(=O)O)C(=O)O)NC(=O)[C@H](CCC(=O)O)NC(=O)[C@@H]1CCCN1C(=O)[C@H](CCCCN)NC(=O)[C@@H]1CCCN1)C(=O)N[C@@H](CCCNC(=N)N)C(=O)N[C@@H](Cc1c[nH]cn1)C(=O)N[C@@H](Cc1ccc(O)cc1)C(=O)N[C@@H](CC(C)C)C(=O)N[C@@H](CC(N)=O)C(=O)N[C@@H](Cc1c[nH]c2ccccc12)C(=O)N[C@@H](CC(C)C)C(=O)N[C@H](C(=O)N[C@@H](CCCNC(=N)N)C(=O)N[C@@H](CCC(N)=O)C(=O)N[C@@H](CCCNC(=N)N)C(=O)N[C@@H](Cc1ccccc1)C(N)=O)[C@@H](C)O [Compound A72],1,0.0158,1.58
CC(C)C[C@H](NC(=O)[C@H](CC(=O)O)NC(=O)[C@H](CCCCN)NC(=O)[C@H](Cc1ccc(O)cc1)NC(=O)[C@H](Cc1ccc(O)cc1)NC(=O)[C@H](CCCNC(=N)N)NC(=O)[C@H](CC(N)=O)NC(=O)[C@H](Cc1c[nH]c2ccccc12)NC(=O)[C@H](CCC(=O)O)NC(=O)[C@H](CCC(=O)O)NC(=O)[C@@H]1CCCN1C(=O)[C@H](CO)NC(=O)[C@H](C)NC(=O)[C@H](CC(=O)O)NC(=O)[C@H](CCCCNC(=O)CC[C@H](NC(=O)CC[C@H](NC(=O)CCCCCCCCCCCCCCCCCCC(=O)O)C(=O)O)C(=O)O)NC(=O)CNC(=O)[C@@H]1CCCN1C(=O)[C@H](CCCCN)NC(=O)[C@H](CCC(=O)O)NC(=O)[C@@H]1CCCN1C(=O)[C@H](CCCCN)NC(=O)[C@@H]1CCCN1)C(=O)N[C@@H](CCCNC(=N)N)C(=O)N[C@@H](Cc1c[nH]cn1)C(=O)N[C@@H](Cc1ccc(O)cc1)C(=O)N[C@@H](CC(C)C)C(=O)N[C@@H](CC(N)=O)C(=O)N[C@@H](Cc1c[nH]c2ccccc12)C(=O)N[C@@H](CC(C)C)C(=O)N[C@H](C(=O)N[C@@H](CCCNC(=N)N)C(=O)N[C@@H](CCC(N)=O)C(=O)N[C@@H](CCCNC(=N)N)C(=O)N[C@@H](Cc1ccccc1)C(N)=O)[C@@H](C)O [Compound A74],0.501,0.0501,1
CC(C)C[C@H](NC(=O)[C@H](CC(=O)O)NC(=O)[C@H](CCCCN)NC(=O)[C@H](Cc1ccc(O)cc1)NC(=O)[C@H](Cc1ccc(O)cc1)NC(=O)[C@H](CCCNC(=N)N)NC(=O)[C@H](CC(N)=O)NC(=O)[C@H](Cc1c[nH]c2ccccc12)NC(=O)[C@H](CCC(=O)O)NC(=O)[C@H](CCCCN)NC(=O)[C@@H]1CCCN1C(=O)[C@H](CO)NC(=O)[C@H](C)NC(=O)[C@H](CC(=O)O)NC(=O)[C@H](CCC(=O)O)NC(=O)CNC(=O)[C@@H]1CCCN1C(=O)[C@H](CCCCNC(=O)CC[C@H](NC(=O)CC[C@H](NC(=O)CCCCCCCCCCCCCCCCC(=O)O)C(=O)O)C(=O)O)NC(=O)[C@H](CCC(=O)O)NC(=O)[C@@H]1CCCN1C(=O)[C@H](CCCCN)NC(=O)[C@@H]1CCCN1)C(=O)N[C@@H](CCCNC(=N)N)C(=O)N[C@@H](Cc1c[nH]cn1)C(=O)N[C@@H](Cc1ccc(O)cc1)C(=O)N[C@@H](CC(C)C)C(=O)N[C@@H](CC(N)=O)C(=O)N[C@@H](Cc1c[nH]c2ccccc12)C(=O)N[C@@H](CC(C)C)C(=O)N[C@H](C(=O)N[C@@H](CCCNC(=N)N)C(=O)N[C@@H](CCC(N)=O)C(=O)N[C@@H](CCCNC(=N)N)C(=O)N[C@@H](Cc1ccccc1)C(N)=O)[C@@H](C)O [Compound A38],2.51,–,3.98
